From patent US5780509A, “Compound bearing two, 2,6-diiodophenol-4-YL groups and diagnostic drug for iodine allergy” (Muromachi Kagaku Kogyo Kaisha, Ltd., priority 1994, dated 1998)
Non-standard residues stand in square brackets, D forms with d. Residues, ends and D or L forms follow the SMILES beside them. Tyr(3,5-I2) = N[C@@H](Cc1cc(I)c(O)c(I)c1)C(=O)O

Columns and labels:
[1] = test system: guinea-pigs immunized with iodine (iodine-sensitized) and non-sensitized guinea-pigs; assay: Active cutaneous anaphylaxis (ACA) reaction, elicitation antigenicity; format: in vivo, guinea-pig (male SPF, Hartley strain); set-up: key to Mean diameter of blue spots, non-sensitized guinea-pig / Mean diameter of blue spots, iodine-sensitized guinea pig (second value) / Mean diameter of blue spots, iodine-sensitized guinea pig (first value): --: Negative response; **: Weak response; conditions: for Mean diameter of blue spots, iodine-sensitized guinea pig (first value) / Mean diameter of blue spots, iodine-sensitized guinea pig (second value) / Mean diameter of blue spots, non-sensitized guinea-pig: 30 min
Text: The elicitation antigenicity of iodinated tyrosine derivatives was studied in the bases of the active cutaneous anaphylaxis (ACA) reaction in guinea-pigs immunized with iodine.
Animals: Male SPF guinea-pigs of Hartley strain, weighing 300~350 g were purchased from Charles River Japan Co., Ltd. These were immunized after having been acclimated for one week.
Sensitization: A solution of iodine potassium iodide (Wako Junyaku, special grade reagent) and complete Freund's adjuvant (Difco) were mixed in equal amounts to form an emulsion. This was administered subcutaneously into the back of guinea-pigs at a dose of 2 mg of iodine per animal 3 times at intervals of 2 weeks. Active cutaneous anaphylaxis (ACA) was elicited 2 weeks after the last sensitization injection.
ACA Induction: 2% Evans blue physiological solution (0.5 ml/animal) was administered intravenously to guinea-pigs, and immediately thereafter 0.1 ml of an elicitation antigen was administered intradermally into the back, and after 30 min. the existence of pigment leakage at the intradermally injected sites was observed.
Elicitation antigen: Iodinated dityrosine, iodinated trityrosine, iodinated dityrosylphenylalanine were administered intracutaneously at 0.1 ml/site. Guinea-pig serum albumin (fraction V: Sigma) was iodinated and used as a positive control. Corresponding noniodinated ones were also administered intradermally as negative controls.
Iodination reaction: To a 50 mM boric acid buffer solution (pH 9.5) of 10 mg/ml of dityrosine, trityrosine, or dityrosylphenylalanine (all produced by Sigma Co., Ltd.) or guinea-pig serum albumin (abbreviated hereafter as GSA), a 0.5M solution of iodine was added at a ratio of 10:1, and these were reacted at 37 C. overnight. The excess iodine in the reaction mixture was reduced by adding sodium thiosulfate (Nakarai Chemical Co., Ltd.). For purification of the iodinated tyrosine derivatives, the reaction mixture was extracted with ethyl acetate and dried with magnesium sulfate, and hexane was added to obtain crystals. For purification of the iodinated GSA, the reaction mixture was purified by passing it through a Sephadex G25 column.

guinea-pigs [2] = assay: Active systemic anaphylaxis (ASA) reaction, sensitization antigenicity; format: in vivo, guinea-pig
Text: (§1) Sensitization antigenicity of iodinated tyrosine derivative was studied.
(§2) Trityrosine was selected as the tyrosine derivative, and this was iodinated to obtain iodinated trityrosine. Guinea-pigs were sensitized with iodinated trityrosine. As a positive control, employed was iodinated guinea-pig serum albumin (GSA). Guinea-pigs of the control group were sensitized with iodinated GSA. Sensitization was examined by active systemic anaphylaxis (ASA) reaction and passive cutaneous anaphylaxis (PCA) reaction.
(§3) Sensitization: Each of iodinated trityrosine and iodinated GSA was emulsified with complete Freund's adjuvant, and injected subcutaneously to the back of animals at a dose of 10 mg/animal (2.5 mg, respectively, at 4 sites), 3 times at intervals of 2 weeks.
ASA reaction: Iodinated GSA (1 mg/animal) was injected intravenously to the animals one week after the last sensitization injection, by which ASA reaction was elicited. The animals which indicated symptoms of anaphylactic shock were judged as being positive.

guinea-pigs [3] = assay: Passive cutaneous anaphylaxis (PCA) reaction, sensitization antigenicity; format: in vivo, guinea-pig
Text: as §1, §2, §3
PCA reaction: The blood was taken from each animal, and the serum was separated one week after the last sensitization injection. The serum was diluted fivefold with physiological saline, and injected intradermally to normal guinea-pigs at a dose of 0.1 ml/site. PCA reaction was provoked by intravenous injection of iodinated GSA (1 mg/animal) and Evans blue solution to the recipient animals 4 hours after the intradermal serum injection. PCA reaction was judged as being positive when the diameter of blue spot at the site of intradermal injection was 5 mm or larger.

anti-iodine antibody = assay: ELISA inhibition potency (OD50) on anti-iodine antibody; format: binding, guinea-pig; conditions: serial twofold dilution, equal volume of 50-fold diluted anti-iodine antiserum; read-out: Inhibitory activity (OD50): concentration which decreased optical density of ELISA to a half of the control
Protocol: Guinea-pigs were immunized with iodine by injecting subcutaneously 1 mg of iodine containing potassium iodide solution treated with complete Freund's adjuvant seven times at intervals of 2 weeks, and anti-iodine antiserum was obtained from these animals. Antibody titers of the sera were determined by enzyme linked immunosorbent assay (ELISA) using 96 well microplate coated with iodinated guinea pig serum albumin (I-GSA) ELISA inhibition activities of the following compounds were studied. The compounds used were potassium iodide, tyrosine and its derivatives such as L-tyrosine, monoiodo-L-tyrosine, diiodotyrosine, hexaiodo-L-trityrosine, L-hexatyrosine and 12 iodo-L-hexatyrosine, and iodinated X-ray contrast media such as amidotrizoic acid, iodamide, ioxaglic acid, iohexol, iopamidol and iomeprol.
ELISA inhibition study was performed as follows. Antibody concentration of anti-iodine antiserum gave the maximum optical density in ELISA till one hundredfold serum dilution. Accordingly, seven steps of twofold serial dilution of anti-iodine antiserum, starting from 50-fold serum dilution, were made with physiological saline as a diluent. To each of the serially diluted sera, were added equal volume of solution containing each of the test compounds described above. After overnight incubation at 4 C, antibody activity was determined by ELISA. Phosphate buffered physiological saline (PBS) was used as a control. ELISA inhibitory activities of the test compounds were determined at the serum dilution which gave about 50% of the maximum optical density (OD415nm =2.6) of ELISA of control at serum dilution of one hundredfold. The inhibitory activity was calculated by the following calculation formula.
In the next, ELISA inhibition study was undertaken to determine the potency of ELISA inhibitory activity of active compounds. […] The inhibitory activity was expressed as the concentration which decreased optical density of ELISA to a half (OD50) of the control.

N[C@@H](Cc1cc(I)c(O)c(I)c1)C(=O)N[C@@H](Cc1cc(I)c(O)c(I)c1)C(=O)N[C@@H](Cc1cc(I)c(O)c(I)c1)C(=O)O [Iodinated trityrosine, hexaiodo-L-trityrosine] (H-[Tyr(3,5-I2)]-[Tyr(3,5-I2)]-[Tyr(3,5-I2)]-OH)
Mean diameter of blue spots, iodine-sensitized guinea pig (first value) ([1]; 1 μg/site intradermal): 6.0 mm | Mean diameter of blue spots, iodine-sensitized guinea pig (second value) ([1]; 1 μg/site intradermal): -- | Mean diameter of blue spots, non-sensitized guinea-pig ([1]; 1 μg/site intradermal): -- | Mean diameter of blue spots, iodine-sensitized guinea pig (first value) ([1]; 10 μg/site intradermal): 8.5 mm | Mean diameter of blue spots, iodine-sensitized guinea pig (second value) ([1]; 10 μg/site intradermal): 4.0 mm | Mean diameter of blue spots, non-sensitized guinea-pig ([1]; 10 μg/site intradermal): -- | Mean diameter of blue spots, iodine-sensitized guinea pig (first value) ([1]; 100 μg/site intradermal): 11.0 mm | Mean diameter of blue spots, iodine-sensitized guinea pig (second value) ([1]; 100 μg/site intradermal): 6.0 mm | Mean diameter of blue spots, non-sensitized guinea-pig ([1]; 100 μg/site intradermal): -- | ACA reaction (in words) ([1]; intradermal injection, guinea-pigs sensitized with iodine): ACA reaction was elicited | ASA reaction: number of positive animal/number of sensitized animal (guinea-pigs [2]; sensitized 10 mg/animal s.c. 3 times, elicited with iodinated GSA 1 mg/animal i.v.): 0/5 | ASA reaction (in words) (guinea-pigs [2]; sensitized group): negative in all animals | PCA reaction (in words) (guinea-pigs [3]; sensitized group): negative in all animals | Anti-iodine antibody production / sensitization antigenicity (in words) (guinea-pigs [3]; sensitized guinea-pigs, from ASA and PCA reactions): no anti-iodine antibody was produced | PCA reaction: number of positive animal/number of sensitized animal (guinea-pigs [3]; serum diluted fivefold, 0.1 ml/site, iodinated GSA 1 mg/animal i.v., positive = blue spot 5 mm or larger): 0/5 | IC50 (anti-iodine antibody): 125 µM
